Laboratory results from US10544102B2, “Benzazepine dicarboxamide compounds with secondary amide function” (Hoffmann-La Roche Inc., priority 2017, dated 2020).

Experiments:
human TLR8 = target: T1, human TLR8 (Homo sapiens, UniProt Q9NR97); test: HEK-Blue human TLR8 cells NF-κB SEAP reporter assay; format: cell-based; conditions: stimulation for 20 hours, Quanti Blue 640 nm
T1 construct: host or cells: HEK-Blue human TLR8 cells (HEK293-derived reporter line)
T1 sequence (Q9NR97 27-1041): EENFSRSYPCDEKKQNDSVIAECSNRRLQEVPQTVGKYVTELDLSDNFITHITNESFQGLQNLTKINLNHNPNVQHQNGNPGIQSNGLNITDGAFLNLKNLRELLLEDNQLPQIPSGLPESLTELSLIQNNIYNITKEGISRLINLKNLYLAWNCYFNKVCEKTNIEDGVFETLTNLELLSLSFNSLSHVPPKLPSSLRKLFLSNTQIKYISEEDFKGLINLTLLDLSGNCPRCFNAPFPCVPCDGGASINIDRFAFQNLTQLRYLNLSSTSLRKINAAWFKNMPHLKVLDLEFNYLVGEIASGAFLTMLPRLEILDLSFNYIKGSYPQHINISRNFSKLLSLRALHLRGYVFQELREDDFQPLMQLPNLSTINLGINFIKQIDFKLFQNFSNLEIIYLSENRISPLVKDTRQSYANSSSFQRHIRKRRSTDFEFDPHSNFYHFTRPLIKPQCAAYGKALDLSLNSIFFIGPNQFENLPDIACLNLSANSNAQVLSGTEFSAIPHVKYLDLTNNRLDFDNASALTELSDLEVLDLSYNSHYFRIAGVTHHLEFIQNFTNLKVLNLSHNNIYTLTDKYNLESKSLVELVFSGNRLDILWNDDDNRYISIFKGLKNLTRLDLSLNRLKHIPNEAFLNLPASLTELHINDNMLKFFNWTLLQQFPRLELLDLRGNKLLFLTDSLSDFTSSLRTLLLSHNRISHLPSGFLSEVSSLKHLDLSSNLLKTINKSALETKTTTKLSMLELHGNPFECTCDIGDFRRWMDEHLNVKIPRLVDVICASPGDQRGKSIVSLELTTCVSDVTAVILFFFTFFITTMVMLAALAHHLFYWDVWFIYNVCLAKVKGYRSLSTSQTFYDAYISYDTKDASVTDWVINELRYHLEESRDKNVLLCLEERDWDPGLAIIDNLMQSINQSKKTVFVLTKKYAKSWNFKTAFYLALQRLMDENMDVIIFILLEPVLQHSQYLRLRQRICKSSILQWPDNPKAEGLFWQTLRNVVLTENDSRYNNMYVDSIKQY
Text: (§1) For TLR8 and TLR7 activity testing, HEK-Blue human TLR8 or TLR7 cells (Invivogen, San Diego, Calif., USA) are used, respectively. These cells are designed for studying the stimulation of human TLR8 or TLR7 by monitoring the activation of NF-κB. A SEAP (secreted embryonic alkaline phosphatase) reporter gene is placed under the control of the IFN-b minimal promoter fused to five NF-κB and AP-1-binding sites. Therefore the reporter expression is regulated by the NF-κB promoter upon stimulation of human TLR8 or TLR7 for 20 hours. The cell culture supernatant SEAP reporter activity was determined using Quanti Blue kit (Invivogen, San Diego, Calif., USA) at a wavelength of 640 nm, a detection medium that turns purple/blue in the presence of alkaline phosphatase. EC50 values were determined using Activity Base analysis (ID Business Solution, Limited).

human TLR7 = target: T2, human TLR7 (Homo sapiens, UniProt Q9NYK1); test: HEK-Blue human TLR7 cells NF-κB SEAP reporter assay; format: cell-based; conditions: stimulation for 20 hours, Quanti Blue 640 nm
T2 construct: host or cells: HEK-Blue human TLR7 cells (HEK293-derived reporter line)
T2 sequence (Q9NYK1 27-1049): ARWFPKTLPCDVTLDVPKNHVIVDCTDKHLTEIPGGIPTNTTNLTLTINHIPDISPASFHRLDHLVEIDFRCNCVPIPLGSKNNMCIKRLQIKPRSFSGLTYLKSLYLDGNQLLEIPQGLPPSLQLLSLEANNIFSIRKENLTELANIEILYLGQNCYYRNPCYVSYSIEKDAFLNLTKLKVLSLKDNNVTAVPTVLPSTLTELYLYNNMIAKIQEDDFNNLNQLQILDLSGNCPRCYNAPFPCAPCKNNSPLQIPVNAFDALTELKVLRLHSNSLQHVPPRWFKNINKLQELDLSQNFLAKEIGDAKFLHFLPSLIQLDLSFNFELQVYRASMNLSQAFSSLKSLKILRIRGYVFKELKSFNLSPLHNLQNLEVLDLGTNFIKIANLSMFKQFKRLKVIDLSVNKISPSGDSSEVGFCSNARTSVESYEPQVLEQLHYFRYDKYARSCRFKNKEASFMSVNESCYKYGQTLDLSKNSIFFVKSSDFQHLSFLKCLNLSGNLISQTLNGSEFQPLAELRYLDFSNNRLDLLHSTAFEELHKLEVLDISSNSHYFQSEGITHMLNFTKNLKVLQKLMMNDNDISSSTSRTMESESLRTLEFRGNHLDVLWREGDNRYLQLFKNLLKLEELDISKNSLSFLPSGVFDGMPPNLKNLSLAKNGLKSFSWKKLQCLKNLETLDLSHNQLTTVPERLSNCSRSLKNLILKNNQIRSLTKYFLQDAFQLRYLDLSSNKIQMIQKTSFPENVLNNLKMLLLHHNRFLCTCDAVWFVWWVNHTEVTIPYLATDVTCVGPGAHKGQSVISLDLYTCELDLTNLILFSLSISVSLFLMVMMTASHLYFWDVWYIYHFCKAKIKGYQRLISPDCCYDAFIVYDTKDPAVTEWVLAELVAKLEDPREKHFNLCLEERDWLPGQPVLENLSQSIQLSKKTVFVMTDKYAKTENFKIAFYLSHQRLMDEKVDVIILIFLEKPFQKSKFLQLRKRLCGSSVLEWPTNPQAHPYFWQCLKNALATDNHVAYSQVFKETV
Text: as §1

SMILES	EC50 (human TLR8) [nM]	EC50 (human TLR7) [nM]
CCCN(CCC)C(=O)C1=Cc2ccc(C(=O)NC(C)(C)c3ccccc3)cc2N=C(N)C1 [Example 13, 2-Amino-N8-(1-methyl-1-phenyl-ethyl)-N4,N4-dipropyl-3H-1-benzazepine-4,8-dicarboxamide]	11	14000
CCCN(CCC)C(=O)C1=Cc2ccc(C(=O)NC3(c4ccccc4)CCC3)cc2N=C(N)C1 [Example 6, 2-Amino-N8-(1-phenylcyclobutyl)-N4,N4-dipropyl-3H-1-benzazepine-4,8-dicarboxamide]	7	13000
CCCN(CCC)C(=O)C1=Cc2ccc(C(=O)NC3(c4ccccc4)CC3)cc2N=C(N)C1 [Example 5, 2-Amino-N8-(1-phenylcyclopropyl)-N4,N4-dipropyl-3H-1-benzazepine-4,8-dicarboxamide]	6	> 100000
CCCN(CCC)C(=O)C1=Cc2ccc(C(=O)NC3CC(CNc4ccccc4)C3)cc2N=C(N)C1 (centres unmarked) [Example 27, 2-Amino-N8-[3-(anilinomethyl)cyclobutyl]-N4,N4-dipropyl-3H-1-benzazepine-4,8-dicarboxamide]	7	> 100000
CCCN(CCC)C(=O)C1=Cc2ccc(C(=O)NC3CCC(CNc4ccccc4)CC3)cc2N=C(N)C1 (centres unmarked) [Example 26, 2-Amino-N8-[4-(anilinomethyl)cyclohexyl]-N4,N4-dipropyl-3H-1-benzazepine-4,8-dicarboxamide]	9	> 100000
CCCN(CCC)C(=O)C1=Cc2ccc(C(=O)NC3CCC3)cc2N=C(N)C1 [Example 17, 2-Amino-N8-cyclobutyl-N4,N4-dipropyl-3H-1-benzazepine-4,8-dicarboxamide]	25	> 100000
CCCN(CCC)C(=O)C1=Cc2ccc(C(=O)N[C@H](C)c3ccccc3)cc2N=C(N)C1 [Example 14, 2-Amino-N8-[(1R)-1-phenylethyl]-N4,N4-dipropyl-3H-1-benzazepine-4,8-dicarboxamide]	12	35000
CCCN(CCC)C(=O)C1=Cc2ccc(C(=O)NCc3ccon3)cc2N=C(N)C1 [Example 8, 2-Amino-N8-(isoxazol-3-ylmethyl)-N4,N4-dipropyl-3H-1-benzazepine-4,8-dicarboxamide]	12	40000
CCCN(CCC)C(=O)C1=Cc2ccc(C(=O)NC3CCN(c4ccccc4)CC3)cc2N=C(N)C1 [Example 2, 2-Amino-N8-(1-phenyl-4-piperidyl)-N4,N4-dipropyl-3H-1-benzazepine-4,8-dicarboxamide]	2	10000
CCCN(CCC)C(=O)C1=Cc2ccc(C(=O)NC(C)(C)C)cc2N=C(N)C1 [Example 16, 2-Amino-N8-tert-butyl-N4,N4-dipropyl-3H-1-benzazepine-4,8-dicarboxamide]	28	50000
CCCN(CCC)C(=O)C1=Cc2ccc(C(=O)N[C@H]3C[C@@H]3c3ccccc3)cc2N=C(N)C1 [Example 1, 2-Amino-N8-[(1S,2R)-2-phenylcyclopropyl]-N4,N4-dipropyl-3H-1-benzazepine-4,8-dicarboxamide]	2	7900

Continued by falling EC50 (human TLR8), values first:

EC50 (human TLR8) [nM]	EC50 (human TLR7) [nM]	SMILES
29	> 100000	CCCN(CCC)C(=O)C1=Cc2ccc(C(=O)NCCCc3cccnc3)cc2N=C(N)C1 [Example 21, 2-Amino-N4,N4-dipropyl-N8-[3-(3-pyridyl)propyl]-3H-1-benzazepine-4,8-dicarboxamide]
29	> 100000	CCCN(CCC)C(=O)C1=Cc2ccc(C(=O)NC3(c4ccccc4)CCOCC3)cc2N=C(N)C1 [Example 11, 2-Amino-N8-(4-phenyltetrahydropyran-4-yl)-N4,N4-dipropyl-3H-1-benzazepine-4,8-dicarboxamide]
26	25000	CCCN(CCC)C(=O)C1=Cc2ccc(C(=O)NCc3ccccc3)cc2N=C(N)C1 [Example 18, 2-Amino-N8-benzyl-N4,N4-dipropyl-3H-1-benzazepine-4,8-dicarboxamide]
24	52000	CCCN(CCC)C(=O)C1=Cc2ccc(C(=O)NCc3cncs3)cc2N=C(N)C1 [Example 9, 2-Amino-N4,N4-dipropyl-N8-(thiazol-5-ylmethyl)-3H-1-benzazepine-4,8-dicarboxamide]
19	> 100000	CCCN(CCC)C(=O)C1=Cc2ccc(C(=O)NC3CCN(c4ccccc4)C3)cc2N=C(N)C1 (centres unmarked) [Example 24, 2-Amino-N8-(1-phenylpyrrolidin-3-yl)-N4,N4-dipropyl-3H-1-benzazepine-4,8-dicarboxamide]
14	> 100000	CCCN(CCC)C(=O)C1=Cc2ccc(C(=O)NC3CCCC3)cc2N=C(N)C1 [Example 15, 2-Amino-N8-cyclopentyl-N4,N4-dipropyl-3H-1-benzazepine-4,8-dicarboxamide]
10	> 100000	CCCN(CCC)C(=O)C1=Cc2ccc(C(=O)NC3CCCN(c4ccccc4)C3)cc2N=C(N)C1 (centres unmarked) [Example 23, 2-Amino-N8-(1-phenyl-3-piperidyl)-N4,N4-dipropyl-3H-1-benzazepine-4,8-dicarboxamide]
10	> 100000	CCCN(CCC)C(=O)C1=Cc2ccc(C(=O)N[C@@H]3CCN(c4ccccc4)C3)cc2N=C(N)C1 [Example 28, 2-Amino-N8-[(3R)-1-phenylpyrrolidin-3-yl]-N4,N4-dipropyl-3H-1-benzazepine-4,8-dicarboxamide]
10	17000	CCCN(CCC)C(=O)C1=Cc2ccc(C(=O)N[C@@H](C)c3ccccc3)cc2N=C(N)C1 [Example 7, 2-Amino-N8-[(1S)-1-phenylethyl]-N4,N4-dipropyl-3H-1-benzazepine-4,8-dicarboxamide]
5	14000	CCCN(CC1CC1)C(=O)C1=Cc2ccc(C(=O)NC3C[C@H]3c3ccccc3)cc2N=C(N)C1 (stereo partly drawn) [Example 22, 2-Amino-N4-(cyclopropylmethyl)-N8-[(2S)-2-phenylcyclopropyl]-N4-propyl-3H-1-benzazepine-4,8-dicarboxamide]
4	> 100000	CCCN(CCC)C(=O)C1=Cc2ccc(C(=O)NC3CN(c4ccccc4)C3)cc2N=C(N)C1 [Example 3, 2-Amino-N8-(1-phenylazetidin-3-yl)-N4,N4-dipropyl-3H-1-benzazepine-4,8-dicarboxamide]
